Consider four compounds from patent publication US20040068005A1, “Pharmaceutical combinations” (priority 2000, published 2004).

Assay type in all cases: in vivo, New Zealand white rabbits
Series [1] deals with streptozotocin diabetic rabbits. Briefly: Femoral nerve conduction velocity, streptozotocin diabetes. The following applies: for Nerve conduction velocity: femoral “C” fibers, streptozotocin diabetic rabbit; for nerve conduction in “C” fibres: streptozotocin-diabetes model, drug alone, nitroglycerin 12-h patch on vs 12-h patch off over three days. As for the experimental part:
(§1) The experiments are carried out with adult, male New Zealand white rabbits, weighing 3.0-3.5 kg, housed as described in Am. J. Physiol 1994, Heart Circ. Physiol, 35: H2033-H2041 and J. Moll Cell.. Cardiol. 1997, 29: 1977-1983.
These series of experiments were carried out to verify/exclude sensory neuropathy. Left saphenous nerve conduction velocity was determined as described in Eur J. Pharmacol 1999, 386:83-88.
Streptozotocin (40 mg/kg i.v.) produced a decrease in nerve conduction velocity in femoral “A” and “C” fibres, respectively, as determined 8 weeks after streptozotocin injection. […] The combination of any of these drugs with nitroglycerin yielded an improvement of conduction velocity in streptozotocin-diabetic aminals similar to that seen with nitroglycerin alone.

Series [2] has as its system normal conscious rabbits. Briefly: Hyperinsulinaemic euglycaemic glucose clamping (insulin sensitivity), normal rabbits. The note with it: for Glucose infusion rate: normal rabbit; for M values of hyperinsulinaemic and euglycaemic glucose clamping: normal rabbits. How it is done: as §1
(§2) To estimate insulin sensitivity and/or insulin resistance, hyperinsulinaemic (100 eU/ml) euglycaemic (5.5 mM/l) glucose clamping was used. The glucose clamping values (M) were established as values of glucose infusion rates expressed in mg/kg/min to maintain blood glucose level at 5.5 mM/l.

Series [3] deals with hypercholesterolaemic, insulin resistant conscious rabbits. Briefly: Hyperinsulinaemic euglycaemic glucose clamping (insulin sensitivity), hypercholesterolaemic rabbits. The note with it: for Glucose infusion rate / M values of hyperinsulinaemic and euglycaemic glucose clamping / synergism (increased effectivity) on glycaemic control: hypercholesterolaemic; for Glucose infusion rate: insulin resistant rabbit; for synergism (increased effectivity) on glycaemic control: drug combined with nitroglycerin; for Insulin sensitivity: percent of means, control = 100. How it is done: (§3) The experiments are carried out with adult, male New Zealand white rabbits, weighing 3.0-3.5 kg, housed as described in Am. […] Physiol, 35: H2033-H2041 and J. Moll Cell.. Cardiol.
as §2

For series [4] the test system is unchanged. Briefly: Ventricular pacing-induced myocardial ischaemia (ST-segment elevation), hypercholesterolaemic rabbits. The note with it: for ST-segment elevation / intracavitary ST-segment elevation / ischaemic changes produced by VOP: hypercholesterolaemic; for ST-segment elevation: insulin resistant rabbit; for intracavitary ST-segment elevation / ischaemic changes produced by VOP: insulin resistant rabbits, drug alone. As for the experimental part:
as §3
(§4) The induction of global myocardial ischaemia was based on a method described as above.

In series [5] the test system is normal conscious rabbits. Briefly: Ventricular pacing-induced myocardial ischaemia (ST-segment elevation), normal rabbits. The note with it: for intracavitary ST-segment elevation / anti-ischaemic effect of combination with nitroglycerin: normal conscious rabbits; for intracavitary ST-segment elevation: drug alone; for anti-ischaemic effect of combination with nitroglycerin: nitroglycerin combined with the drug; for ST-segment elevation: normal rabbit. How it is done: as §3, §4

The subject of series [6] is hypercholesterolaemic, insulin resistant rabbits. Briefly: Femoral nerve conduction velocity, hyperlipidaemia-induced insulin resistance. The note with it: femoral “C” fibers, hypercholesterolaemic, insulin resistant rabbit. How it is done:
as §3
These series of experiments were carried out to verify/exclude sensory neuropathy.

Where [7] appears, read: placebo patch, troglitazon 70 mg/kg p.os, metformin 5 mg/kg i.v., glibenclamide 1 mg/kg i.v., idazoxan 2 mg/kg i.v., healthy untreated 6.2.
Where [8] appears, read: with active patch (nitroglycerin 0.07 mg/kg/h), alone (Control) or with the drug.
Where [9] appears, read: placebo patch, troglitazon 70 mg/kg p.os, metformin 5 mg/kg i.v., glibenclamide 1 mg/kg i.v., idazoxan 2 mg/kg i.v., mean.
Setting [10] is: with active patch (nitroglycerin 0.07 mg/kg/h), alone (Control) or together with the drug, troglitazon 70 mg/kg p.os, metformin 5 mg/kg i.v., glibenclamide 1 mg/kg i.v., idazoxan 2 mg/kg i.v.
[11] abbreviates: drug alone, troglitazon 70 mg/kg/day p. os over 3 days, metformin 5 mg/kg/day i.v. over 3 days, glibenclamide 1 mg/kg i.v., idazoxan 2 mg/kg i.v.
The mark [12] stands for this setting: placebo patch, troglitazon 70 mg/kg p.os, metformin 5 mg/kg i.v., glibenclamide 1 mg/kg i.v., idazoxan 2 mg/kg i.v.
The mark [13] stands for this setting: with active patch (nitroglycerin 0.07 mg/kg/h), alone (Control) or together with the drug, same doses.
The mark [14] stands for this setting: insulin resistant rabbits, in the presence of nitroglycerin and the drug, compared to the placebo patch group.
Where [15] appears, read: metformin 100 mg/kg p.os, ISMN controlled release 5 mg/kg p.os.
[16] abbreviates: nitroglycerin patch 0.07 mg/kg/h, metformin 5 mg/kg i.v., troglitazon 70 mg/kg p.os.

With `COc1ccc(Cl)cc1C(=O)NCCc1ccc(S(=O)(=O)NC(=O)NC2CCCCC2)cc1` [Glibenclamide, glibenclamide], the Nerve conduction velocity in series [1] (setting [7]) is on record as 2.9 ± 0.24 dm/s; in series [1] (setting [8]), 3.6 ± 0.2 dm/s. Further, in series [1], the “nerve conduction in “C” fibres” value is “Neither troglitazon,nor glibenclamide, idazoxan or metformin produced any effect”. Further, the Glucose infusion rate with normal conscious rabbits [2] (setting [9]) stood at 14.667 mg/kg/min; in the series with normal conscious rabbits [2] (setting [10]), 16.500 mg/kg/min; in series [3] (setting [12]), 8.833 mg/kg/min; in series [3] (setting [13]) it was 12.333 mg/kg/min. For the same compound, the “M values of hyperinsulinaemic and euglycaemic glucose clamping” value (shortened to “M values”) with normal conscious rabbits [2] (setting [11]) is given as “without effect”; in series [3] (setting [14]), “significantly increased”. In addition, the “synergism (increased effectivity) on glycaemic control” value in series [3] (insulin resistant rabbits) is recorded as “synergism”. Besides, the ST-segment elevation in series [4] (placebo patch, same doses) came out at 1.9 ± 0.40 mV; in series [4] (setting [8]) it was 1.5 ± 0.13 mV; in the series with normal conscious rabbits [5] (setting [12]) it was 1.4 ± 0.08 mV; in the series on normal conscious rabbits [5] (setting [8]), 0.8 ± 0.08 mV. Also, the “intracavitary ST-segment elevation / ischaemic changes produced by VOP” value in series [4] is “without effect”. Further, the “intracavitary ST-segment elevation” value in the series on normal conscious rabbits [5] is “without effect”. In addition, in the series with normal conscious rabbits [5], the “anti-ischaemic effect of combination with nitroglycerin” value (from here on “anti-ischaemic effect of combination”) is listed as “anti-ischaemic effect similar to that produced by nitroglyc erin alone”.
On to `c1ccc2c(c1)OCC(C1=NCCN1)O2` (centres unmarked) [Idazoxan, idazoxane], for which the Nerve conduction velocity turned out to be 2.8 ± 0.26 dm/s in series [1] (setting [7]) and 3.4 ± 0.2 dm/s in series [1] (setting [8]). The “nerve conduction in “C” fibres” value in series [1] is given as “Neither troglitazon,nor glibenclamide, idazoxan or metformin produced any effect”. Besides, the Glucose infusion rate in the series with normal conscious rabbits [2] (setting [9]) turned out to be 14.667 mg/kg/min; in the series with normal conscious rabbits [2] (setting [10]), 16.000 mg/kg/min; in series [3] (setting [12]), 8.500 mg/kg/min; in series [3] (setting [13]) it was 12.833 mg/kg/min. In addition, the “M values” value with normal conscious rabbits [2] (setting [11]) is listed as “without effect”; in series [3] (setting [14]), “significantly increased”. In addition, the “synergism (increased effectivity) on glycaemic control” value in series [3] (insulin resistant rabbits) is given as “synergism”. In addition, the ST-segment elevation was determined as 2.3 ± 0.50 mV in series [4] (placebo patch, same doses); 1.8 ± 0.16 mV in series [4] (setting [8]); 1.4 ± 0.05 mV in the series with normal conscious rabbits [5] (setting [12]); 0.8 ± 0.09 mV with normal conscious rabbits [5] (setting [8]). Besides, in series [4], the “intracavitary ST-segment elevation / ischaemic changes produced by VOP” value was “aggravated ischaemic changes”. Moreover, in series [4] (insulin resistant animals, idazoxan 2 mg/kg i.v.), the “ventricular extrasystoles on VOP” value is “VOP induced ventricular extrasystolesin the insulin resistant animals”. Besides, the “anti-ischaemic effect of combination” value with normal conscious rabbits [5] is “anti-ischaemic effect similar to that produced by nitroglyc erin alone”.
For `CN(C)C(=N)N=C(N)N` [Metformin, metformine], the values for the Nerve conduction velocity in series [1] (setting [7]) and in series [1] (setting [8]) were 3.1 ± 0.2 dm/s and 3.6 ± 0.2 dm/s, respectively. For the same compound, the “nerve conduction in “C” fibres” value in series [1] is listed as “Neither troglitazon,nor glibenclamide, idazoxan or metformin produced any effect”. Moreover, the Glucose infusion rate is 15.667 mg/kg/min in the series with normal conscious rabbits [2] (setting [9]); 19.833 mg/kg/min with normal conscious rabbits [2] (setting [10]); 14.80 ± 0.0800 mg/kg/min in the series with normal conscious rabbits [2] (setting [15]); 10.833 mg/kg/min in series [3] (setting [12]); 14.500 mg/kg/min in series [3] (setting [13]); 11.70 ± 1.0300 mg/kg/min in series [3] (setting [15]). Besides, the “M values” value in the series on normal conscious rabbits [2] (drug alone vs control, isosorbide-5-mononitrate 1 mg/kg/day (Olicard 40), metformin 100 mg/kg/day p.os over 3 days) is given as “without any effect”; in the series on normal conscious rabbits [2] (setting [11]) it was “without effect”; with normal conscious rabbits [2] (in the presence of transdermal nitroglycerin combined with the drug), “significantly increased”; in the series on normal conscious rabbits [2] (metformin 100 mg/kg/day p.os in the presence of ISML (ISMN)), “significant increase”; in series [3] (insulin resistant rabbits vs control, ISMN 5 mg/kg/day (Olicard 40), metformin 100 mg/kg/day p.os over 3 days), “significant increase”; in series [3] (setting [14]), “significantly increased”. For the same compound, the Insulin sensitivity in series [3] (ISMN controlled release 5 mg/kg p.os, metformin 100 mg/kg p.os) is reported as 120.6%; in series [3] (setting [16]) it was 120.4%. Also, the ST-segment elevation turned out to be 2.1 ± 0.13 mV in series [4] (placebo patch, same doses); 1.5 ± 0.08 mV in series [4] (setting [8]); 1.4 ± 0.08 mV in the series on normal conscious rabbits [5] (setting [12]); 0.8 ± 0.10 mV with normal conscious rabbits [5] (setting [8]). The “intracavitary ST-segment elevation / ischaemic changes produced by VOP” value in series [4] is “without effect”. Besides, the “intracavitary ST-segment elevation” value in the series on normal conscious rabbits [5] is recorded as “without effect”. The “anti-ischaemic effect of combination” value with normal conscious rabbits [5] was “anti-ischaemic effect similar to that produced by nitroglyc erin alone”.
For `Cc1c(C)c2c(c(C)c1O)CCC(C)(COc1ccc(CC3SC(=O)NC3=O)cc1)O2` (centres unmarked) [Troglitazon, troglitazone], the Nerve conduction velocity in series [1] (setting [7]) is reported as 3.2 ± 0.3 dm/s; in series [1] (setting [8]) it was 3.6 ± 0.2 dm/s; in series [6] (placebo patch, troglitazon 70 mg/kg p.os), 4.6 ± 0.4 dm/s; in series [6] (with active patch (nitroglycerin 0.07 mg/kg/h), alone (Control) or with troglitazon 70 mg/kg p.os) it was 5.9 ± 0.2 dm/s. The Glucose infusion rate with normal conscious rabbits [2] (setting [9]) came out at 17.167 mg/kg/min; with normal conscious rabbits [2] (setting [10]) it was 19.333 mg/kg/min; in series [3] (setting [12]), 11.000 mg/kg/min; in series [3] (setting [13]), 14.667 mg/kg/min. Also, in series [3] (setting [16]), the Insulin sensitivity stood at 122.2%. The ST-segment elevation in series [4] (placebo patch, same doses) worked out at 1.6 ± 0.12 mV; in series [4] (setting [8]), 1.08 ± 0.10 mV; with normal conscious rabbits [5] (setting [12]) it was 1.1 ± 0.08 mV; with normal conscious rabbits [5] (setting [8]), 0.7 ± 0.09 mV.
